Assay results reported in patent US20220274947A1, “NOVEL HETEROARYL-TRIAZOLE COMPOUNDS AS PESTICIDES” (Bayer Aktiengesellschaft, priority 2019, published 2022).

What was measured:
Assay type in all cases: in vivo
Rhipicephalus microplus [1] = assay: Rhipicephalus (Boophilus) microplus injection test (BOOPMI Inj); conditions: 168 h, injection into adult engorged female ticks, egg deposition after 7 days, read-out: activity (efficacy: 100% means all eggs are infertile); for pest or weed control at 0.004 mg: application rate 4 μg/tick; for pest or weed control at 0.02 mg: application rate 20 μg/tick
Outline: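 Five engorged adult female R. microplus ticks injected into the abdomen with 1 μL of compound diluted in DMSO, then kept in a climate chamber. Fertile egg deposition checked after 7 days; eggs without visible fertility held until hatching at about 42 days. Efficacy: 100% = all eggs infertile, 0% = all fertile.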

Rhipicephalus microplus [2] = assay: Rhipicephalus (Boophilus) microplus in-vitro contact test, larval cattle tick, strain Parkhurst (BOOPMI Cont); conditions: application rate 5 μg/cm^2 (=500 g/ha), tick larvae, after 48 hours, read-out: activity (efficacy: 100% means all larvae are dead or moribund)
Outline: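 Acetone solutions dried onto glass tube walls (900 ppm giving 5 μg/cm^2); 20-50 pyrethroid-resistant Parkhurst larvae added per tube and held 48 h at 27° C., 85% relative humidity. Efficacy scored by negative geotaxis as % dead or moribund larvae.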

Ctenocephalides felis [3] = assay: Ctenocephalides felis oral test (CTECFE Oral); conditions: 48 h, read-out: activity (mortality)
Outline: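 About 20 unfed adult cat fleas fed through parafilm on cattle blood containing compound (DMSO concentrate diluted in blood to the desired concentration). Blood held at 37 °C, fleas at room temperature. Mortality (%) scored after 2 days.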

Diabrotica balteata = Diabrotica balteata spray test; conditions: 168 h, wheat seeds, larvae, after 7 days, read-out: activity (efficacy: 100% means all seedlings have grown up like in the untreated, uninfected control); for pest or weed control at 32 µg/disc, 100 g/ha: application rate 100 g/ha (=32 μg/well); for pest or weed control at 160 µg/disc, 500 g/ha: application rate 500 g/ha (=160 μg/well)
Outline: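 Wheat seedlings, germinated 1 day on agar, were sprayed with compound in acetone/DMF diluted in water containing emulsifier, then infested with 10-20 Diabrotica balteata larvae. After 7 days efficacy in % was scored: 100% means seedlings grew like the untreated, uninfected control; 0% means none grew.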

Nilaparvata lugens = Nilaparvata lugens spray test; conditions: 96 h, rice plants, after 4 days; for mortality at 100 g/ha: application rate 100 g/ha
Procedure: Nilaparvata lugens—Spray Test Solvent: 78.0 parts by weight of acetone • • 1.5 parts by weight of dimethylformamide Emulsifier: alkylarylpolyglycol ether
To produce a suitable preparation of active compound, 1 part by weight of active compound is mixed with the stated amount of solvents and is diluted with water, containing an emulsifier concentration of 1000 ppm, to the desired concentration. Further test concentrations are prepared by dilution with emulsifier containing water.
Rice plants (Oryza sativa) are sprayed with a preparation of the active ingredient of the desired concentration and the plants are infested with the brown planthopper (Nilaparvata lugens).
After 4 days mortality in % is determined. 100% means all planthoppers have been killed and 0% means none of the planthoppers have been killed.

Spodoptera frugiperda = Spodoptera frugiperda spray test; conditions: in Zea mays, 168 h, read-out: activity (mortality)
Outline: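 Maize leaf sections were sprayed with compound formulated in acetone/DMF and diluted in water containing 1000 ppm emulsifier. Dried leaves were infested with fall armyworm larvae, and percent mortality was scored after 7 days.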

Meloidogyne incognita = Meloidogyne incognita test; conditions: application rate 20 ppm, salad seedlings, after 14 days
Procedure: Meloidogyne incognita—Test Solvent: 125.0 parts by weight of acetone
To produce a suitable preparation of active compound, 1 part by weight of active compound is mixed with the stated amount of solvent, and the concentrate is diluted with water to the desired concentration.
Vessels are filled with sand, a solution of the active ingredient, a suspension containing eggs and larvae of the southern root-knot nematode (Meloidogyne incognita) and salad seeds. The salad seeds germinate and the seedlings grow. Galls develop in the roots.
After 14 days the nematicidal activity is determined based on the percentage of gall formation. 100% means no galls were found and 0% means the number of galls found on the roots of the treated plants was equal to that in untreated control plants.

Rhipicephalus sanguineus = Rhipicephalus sanguineus in-vitro contact test, adult brown dog ticks (RHIPSA Cont); conditions: 48 h, after 48 hours, read-out: activity (efficacy: 100% means all ticks are dead or moribund); for pest or weed control at 1 µg/cm2, 100 g/ha: application rate 1 μg/cm^2 (=100 g/ha)
Outline: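 Compound in acetone was coated onto the inner walls of glass tubes and dried by rotation before adult brown dog ticks were exposed. Efficacy was scored at 48 h. Ticks unable to climb away from a 45–50 °C heating plate within 5 min counted as dead or moribund.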

Ctenocephalides felis [4] = assay: Ctenocephalides felis in-vitro contact test, adult cat flea (CTECFE Cont); conditions: application rate 5 μg/cm^2 (=500 g/ha), adult cat fleas, after 48 hours, read-out: activity (efficacy: 100% means all fleas are dead or moribund)
Outline: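 Acetone solutions coated on glass tube inner walls (900 ppm giving 5 μg/cm^2), then 5-10 adult fleas added and held 48 h at room temperature. Fleas unable to escape a 45-50° C. heating plate within 5 min scored dead or moribund; efficacy = % dead/moribund.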

Myzus persicae = Myzus persicae oral test; conditions: 120 h, read-out: activity (mortality)
Outline: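 Percent mortality was recorded at day 5, where 0% means no aphids killed. Compound prepared from an acetone concentrate diluted in water and combined with IPL41 medium containing sugar was offered to mixed-stage green peach aphids, which sucked it through a parafilm seal.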

Nezara viridula = Nezara viridula spray test; conditions: in Hordeum vulgare, 96 h, barley plants, larvae, after 4 days
Outline: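 Barley plants infested with N. viridula larvae were sprayed with compound in acetone/DMF diluted with water containing 1000 ppm alkylarylpolyglycol ether emulsifier. Mortality (%) was scored after 4 days; 100% means all bugs killed, 0% none.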

SMILES	pest or weed control at 0.004 mg (Rhipicephalus microplus [1])	pest or weed control at 5 µg/cm2 (Rhipicephalus microplus [2])	mortality at 100 ppm (Ctenocephalides felis [3])	pest or weed control at 32 µg/disc, 100 g/ha (Diabrotica balteata)	mortality at 100 g/ha (Nilaparvata lugens)	mortality at 100 g/ha (Spodoptera frugiperda)	pest or weed control at 0.02 mg (Rhipicephalus microplus [1])	pest or weed control at 160 µg/disc, 500 g/ha (Diabrotica balteata)	nematicidal activity (100% means no galls were found) (Meloidogyne incognita)	mortality at 500 g/ha (Spodoptera frugiperda)	pest or weed control at 1 µg/cm2, 100 g/ha (Rhipicephalus sanguineus)	pest or weed control at 5 µg/cm2 (Ctenocephalides felis [4])	pest or weed control at 5 µg/cm2, 500 g/ha (Rhipicephalus sanguineus; application rate 5 μg/cm^2 (=500 g/ha))	mortality at 4 ppm (Myzus persicae)	mortality at 500 g/ha (Nezara viridula; application rate 500 g/ha)	mortality at 500 g/ha (Nilaparvata lugens; application rate 500 g/ha)	mortality at 100 g/ha (Nezara viridula; application rate 100 g/ha)
C[C@H](NC(=O)c1cc(Cl)cc(C(F)(F)C(F)(F)F)c1)c1nc(C2CC2)nn1-c1ccc(C#N)cn1 [I-43]	100%	100%	100%	100%	90%	100%	–	–	–	–	–	–	–	–	–	–	–
CCOc1nc([C@H](C)NC(=O)c2cc(Cl)cc(C(F)(F)F)c2)n(-c2ccc(C#N)cn2)n1 [I-12]	–	100%	90%	100%	–	100%	100%	100%	90%	100%	–	–	–	–	–	–	–
C[C@H](NC(=O)c1cc(Cl)cc(C(F)(F)F)c1)c1ncnn1-c1cc([N+](=O)[O-])ccn1 [II-24]	80%	100%	–	–	–	–	100%	80%	100%	100%	80%	–	–	–	–	–	–
CCOc1nc([C@H](C)NC(=O)c2cc(Cl)cc(Cl)c2)n(-c2ccc(C#N)cn2)n1 [I-14]	100%	100%	–	100%	–	83%	100%	100%	100%	100%	–	–	–	–	–	–	–
C[C@H](NC(=O)c1cc(C(F)(F)F)cc(C(F)(F)F)c1)c1ncnn1-c1ccc(C(=O)N(C)CC(F)(F)F)cn1 [II-74]	100%	100%	–	100%	–	100%	100%	100%	–	100%	100%	100%	100%	100%	100%	90%	–
Cc1nc([C@H](C)NC(=O)c2cc(C(F)(F)F)cc(C(F)(F)F)c2)n(-c2ccc(C(=O)N(C)CCN(C)C)cn2)n1 [II-95]	80%	90%	100%	–	90%	–	–	–	–	–	100%	–	–	90%	–	–	100%
